Source: patent US5945508A, “Substance P treatment for immunostimulation” (priority 1997, dated 1999)

Legend:
Spleen T Cell = assay: Mitogenesis of spleen T cells, LP-BM5 mouse AIDS model; assay type: in vivo, C57BL6 mice
Description: C57BL6 mice, average weight of 25-30 grams, were infected with the LP-BM5 murine leukemia retrovirus to simulate the human AIDS virus. […] The mice were divided into two groups; LP-BM5 virus only and LP-BM5 virus+substance P aerosol therapy at 1 μM concentration. The mice were killed at 4 and 8 weeks postinoculation.
The proliferation of splenic B and T cells induced by mitogens was determined by incorporation of radioactive thymidine. Splenocytes in 0.1 ml of cell culture medium (1×10 ^7 cells/ml) were cultured in 96-well flat-bottom cultured plates with ConA and lipopolysaccharide, 5 micrograms/ml). […] After 4 hours for radioactive thymidine uptake, the cells were harvested by a cell sample harvester. Radioactivity was determined by a liquid scintillation counter (Tri-Carb, 2200CA). The T and B cell mitogenesis values were recorded as counts per min in 1×10^7 cells/ml.

[1] = tested on: spleen, thymus and bone marrow cells; assay: JP-8 jet fuel exposed mice, cell numbers (FIGS. 1-3); assay type: in vivo, C57BL6 mice; conditions: 1 micromolar aerosol 15 minutes after each exposure
Description: Since mice are nose-breathers, they were exposed to the aerosol/vapor mixture via nose-only presentation while they were held in individual loading tubes. The tubes were nose-fitted to receiving adaptors that originated from the common anodized aluminum exposure chamber (volume 0.3 m^3, IN-TOX, Albuquerque, N. Mex.). Noses were positioned in the exposure ports to minimize systemic absorption that might occur during total body exposure or through the process of self-grooming after exposure. The mice were rotated on a daily basis through the 24-adaptor positions of the exposure chamber. This was done to minimize proximity to the jet fuel source as a variable in exposure concentration or composition. Passive entrainment of the jet fuel aerosol/vapor mix and room air through the IN-TOX chamber was conducted by vacuum (15 liters/min). The vacuum was applied to the exposure chamber on the side opposite the fuel source. Animal exposure ports not in use were sealed during the exposure period. Longitudinal controls were sham-exposed in a manner identical to those receiving jet fuel, except that only room air was introduced into the exposure chamber. The exposure chamber was thoroughly cleaned prior to the longitudinal control group's exposure.
The substance P aerosol therapy was performed at the completion of the JP-8 jet fuel exposure. The nebulizer was modified with clean hoses and a new sonication crucible. […] The substance P aerosol therapy was conducted for the same seven day period over a total time period of nine days as the JP-8 jet fuel exposure regimen.

Substance P [SP] was tested, and the “Spleen T Cell Mitogenesis” value (Spleen T Cell; 4 weeks after LP-BM5 infection, SP aerosol 1 μM 3 days/week, 25 Hours in Culture) was 2963 (56) counts per min, the “Spleen T Cell Mitogenesis” value (Spleen T Cell; 4 weeks after LP-BM5 infection, SP aerosol 1 μM 3 days/week, 48 Hours in Culture) was 2769 (23) counts per min and the “Spleen T Cell Mitogenesis” value (Spleen T Cell; 4 weeks after LP-BM5 infection, SP aerosol 1 μM 3 days/week, 72 Hours in Culture) was 4362 (69) counts per min. The “Spleen T Cell Mitogenesis” value (Spleen T Cell; 8 weeks post-infection with LP-BM5, SP aerosol 1 μM, 72 hours in culture) was 3127 (77) counts per min, the “effect on spleen cell number (FIG. 1)” value ([1]; JP-8 500 or 2500 mg/m^3 7 days) was “totally reverse the effect of the jet fuel on the spleen cell number” and the “effect on bone marrow cells (FIG. 3)” value ([1]; JP-8 exposed mice) was “augments the stimulation substantially”. For the same substance, the “effect on thymus cell number (FIG. 2)” value ([1]; JP-8 exposed mice) was “substantially reverses the effect on cell number”.
